Read-outs that look alike come from different tables or passages of the source.
How the values were obtained:
Format in all cases: in vivo
[1] = test system: mustard beetle larvae (Phaedon cochleariae); test: Phaedon cochleariae - spray test; conditions: foliar, 144 h, read-out: Efficacy in % after 6d (mortality)
Description: (§1) The expected activity for a given combination of two active compounds can be calculated according to S. R. Colby, Weeds 15 (1967), 20-22 as follows: • If • X is the efficacy expressed in % mortality of the untreated control for test compound A at a concentration of m ppm respectively m g/ha, • Y is the efficacy expressed in % mortality of the untreated control for test compound B at a concentration of n ppm respectively n g/ha, • E is the efficacy expressed in % mortality of the untreated control using the mixture of A and B at m and n ppm respectively m and n g/ha,
(§2) If the observed insecticidal efficacy of the combination is higher than the one calculated as “E”, then the combination of the two compounds is more than additive, i.e., there is a synergistic effect.
To produce a suitable preparation of active compound, 1 part by weight of active compound is mixed with the stated amount of solvent and emulsifier, and the concentrate is diluted with emulsifier-containing water to the desired concentration. To produce a suitable preparation of a spore suspension the spores are diluted with emulsifier-containing water to the desired concentration.
Chinese cabbage (Brassica pekinensis) leaf-disks are sprayed with a preparation of the active ingredient of the desired concentration. Once dry, the leaf disks are infested with mustard beetle larvae (Phaedon cochleariae).
After the specified period of time, mortality in % is determined. 100% means all beetle larvae have been killed and 0% means none of the beetle larvae have been killed. The mortality values determined thus are recalculated using the Colby-formula (see sheet 1).

[2] = test system: larvae of the diamondback moth (Plutella xylostella); test: Plutella xylostella - spray test; conditions: cabbage leaves
Description: as §1, §2
To produce a suitable preparation of active compound, 1 part by weight of active compound is mixed with the stated amount of solvent and emulsifier, and the concentrate is diluted with emulsifier-containing water to the desired concentration Ammonium salt and/or penetration enhancer in a dosage of 1000 ppm are added to the desired concentration if necessary. […]
After the specified period of time, the mortality in % is determined. […] The mortality values determined thus are recalculated using the Colby-formula (see sheet 1).

[3] = test system: green peach aphid (Myzus persicae); test: Myzus persicae - spray test
Description: as §1, §2
To produce a suitable preparation of active compound, 1 part by weight of active compound is mixed with the stated amount of solvent and emulsifier, and the concentrate is diluted with emulsifier-containing water to the desired concentration.
Chinese cabbage (Brassica pekinensis) leaf-disks infected with all instars of the green peach aphid (Myzus persicae) are sprayed with a preparation of the active ingredient of the desired concentration.
After the specified period of time, mortality in % is determined 100% means all aphids have been killed; 0% means none of the aphids have been killed. The mortality values determined thus are recalculated using the Colby-formula (see sheet 1).

O=C(NCCc1ncc(C(F)(F)F)cc1Cl)c1ccccc1C(F)(F)F [Fluopyram, fluopyram]
mortality at 100 g/ha ([1]; in Brassica rapa): 0% | mortality at 50 ppm ([2]; Plutella xylostella, 72 h, 50 ppm, 3 d, read-out: Efficacy in % after 3d (mortality)): 0%

O=C1C=C(N(Cc2ccc(Cl)nc2)CC(F)F)CO1 [Flupyradifurone]
Efficacy in % after 6d (mortality) ([3]; 0.5 g ai/ha, Chinese cabbage leaf disks, 6 d): 0% | Efficacy in % after 2d (mortality) ([2]; 1.25 ppm, 2 d): 0%

CC(c1ccc(C(F)(F)F)nc1)S(C)(=O)=NC#N (stereo not shown) [Sulfoxaflor (II-13), Sulfoxaflor]
mortality at 0.3 g/ha ([3]; Myzus persicae, in Brassica rapa, foliar, 144 h, read-out: Efficacy in % after 6d (mortality)): 70% | mortality at 0.16 g/ha ([1]; in Brassica rapa): 0% | mortality at 12 g/ha ([1]; in Brassica rapa): 0%

Cc1cc(C(F)(C(F)(F)F)C(F)(F)F)ccc1NC(=O)c1cccc(Cl)c1C(=O)NC(C)(C)C#N [(I-5)]
mortality at 1.25 g/ha ([3]; Myzus persicae, foliar, 144 h, 1.25 g ai/ha, Chinese cabbage leaf disks, 6 d, read-out: Efficacy in % after 6d (mortality)): 0% | mortality at 1.5 g/ha ([3]; Myzus persicae, foliar, 144 h, 1.5 g ai/ha, Chinese cabbage leaf disks, 6 d, read-out: Efficacy in % after 6d (mortality)): 0% | mortality at 15 g/ha ([3]; Myzus persicae, foliar, 144 h, 15 g ai/ha, Chinese cabbage leaf disks, 6 d, read-out: Efficacy in % after 6d (mortality)): 0% | mortality at 2.5 g/ha ([1]; 2.5 g ai/ha, Chinese cabbage leaf disks, 6 d): 0% | mortality at 4 g/ha ([1]; 4 g ai/ha, Chinese cabbage leaf disks, 6 d): 0% | mortality at 12 g/ha ([1]; 12 g ai/ha, Chinese cabbage leaf disks, 6 d): 0%

From patent publication US9549551B2, “Active compound combinations having insecticidal properties” (priority 2013, dated 2017)
